Laboratory results taken from the NIST ThermoML archive (doi:10.1016/j.jct.2006.06.001).

Assays:
[1] = xn = mol fraction of the nth substance listed; details: 81.5 kPa, Liquid
[2] = 81.5 kPa, Liquid

COCCO [2-methoxyethan-1-ol] + CC(O)CO
mass density [kg/m3], [1]
Details	293.15 K	303.15 K	313.15 K	323.15 K	333.15 K	343.15 K
x1 = 0.0745	1030.87	1023.34	1015.67	1007.87	999.89	991.75
x1 = 0.1669	1024.12	1016.42	1008.59	1000.6	992.48	984.19
x1 = 0.2365	1019.06	1011.22	1003.26	995.17	986.94	978.54
x1 = 0.3194	1013.05	1005.07	996.96	988.73	980.35	971.81
x1 = 0.3946	1007.6	999.48	991.25	982.88	974.38	965.73
x1 = 0.4791	1001.49	993.22	984.85	976.34	967.7	958.9
x1 = 0.5625	995.51	987.1	978.58	969.93	961.14	952.2
x1 = 0.6331	990.47	981.94	973.3	964.53	955.63	946.55
x1 = 0.7266	983.82	975.12	966.32	957.38	948.31	939.08
x1 = 0.8081	978.11	969.27	960.32	951.24	942.02	932.64
x1 = 0.8752	973.43	964.47	955.4	946.21	936.87	927.36
x1 = 0.9658	967.23	958.12	948.88	939.52	930.01	920.33

COCCO [2-methoxyethan-1-ol]
[2]
Details	mass density [kg/m3]
293.15 K	964.86
303.15 K	955.68
313.15 K	946.38
323.15 K	936.95
333.15 K	927.38
343.15 K	917.64

COCCO [2-methoxyethan-1-ol] + CCCO
mass density [kg/m3], [1]
Details	293.15 K	303.15 K	313.15 K	323.15 K	333.15 K	343.15 K
x1 = 0.0845	817.73	809.55	801.23	792.73	783.99	774.97
x1 = 0.1559	829.58	821.29	812.86	804.25	795.42	786.31
x1 = 0.2391	843.36	834.94	826.39	817.66	808.72	799.51
x1 = 0.3146	855.77	847.26	838.61	829.78	820.75	811.47
x1 = 0.4015	869.91	861.29	852.53	843.61	834.47	825.11
x1 = 0.479	882.45	873.74	864.89	855.88	846.68	837.25
x1 = 0.5597	895.42	886.62	877.69	868.6	859.32	849.83
x1 = 0.6365	907.69	898.82	889.81	880.65	871.31	861.76
x1 = 0.7183	920.73	911.78	902.7	893.47	884.08	874.48
x1 = 0.7939	932.73	923.71	914.56	905.28	895.83	886.17
x1 = 0.8775	945.88	936.8	927.59	918.24	908.74	899.05
x1 = 0.9553	957.99	948.84	939.57	930.18	920.63	910.9

CC(O)CO (stereo not given) [1,2-propanediol]
[2]
Details	mass density [kg/m3]
293.15 K	1036.3
303.15 K	1028.89
313.15 K	1021.35
323.15 K	1013.68
333.15 K	1005.86
343.15 K	997.86

CCCO [propan-1-ol]
[2]
Details	mass density [kg/m3]
293.15 K	803.61
303.15 K	795.57
313.15 K	787.39
323.15 K	779.02
333.15 K	770.42
343.15 K	761.51

COCCO [2-methoxyethan-1-ol] + CC(C)O
mass density [kg/m3], [1]
Details	293.15 K	303.15 K	313.15 K	323.15 K	333.15 K	343.15 K
x1 = 0.0823	800.06	791.49	782.64	773.45	763.86	753.79
x1 = 0.1565	813.56	804.91	796	786.79	777.21	767.2
x1 = 0.2367	828.13	819.4	810.43	801.18	791.6	781.64
x1 = 0.3166	842.63	833.83	824.81	815.54	805.96	796.02
x1 = 0.4015	858.01	849.14	840.08	830.78	821.21	811.31
x1 = 0.4766	871.62	862.69	853.59	844.26	834.69	824.82
x1 = 0.5605	886.76	877.79	868.64	859.3	849.72	839.87
x1 = 0.6403	901.1	892.08	882.9	873.54	863.96	854.14
x1 = 0.7179	914.98	905.92	896.72	887.34	877.76	867.96
x1 = 0.7925	928.26	919.16	909.94	900.55	890.96	881.18
x1 = 0.8593	940.12	931	921.74	912.34	902.77	892.99
x1 = 0.9585	957.65	948.49	939.2	929.78	920.21	910.45

CC(C)O [propan-2-ol]
[2]
Details	mass density [kg/m3]
293.15 K	785.1
303.15 K	776.63
313.15 K	767.85
323.15 K	758.68
333.15 K	749.06
343.15 K	738.91
